Measured values from patent publication US8399476B2, “Imidazo[1,2-a]pyridines and their use as pharmaceuticals” (Sanofi, priority 2007, dated 2013).
Counter-ions that a name gives are not always drawn.

Tested on: eNOS promoter
Assay: Activation of eNOS transcription (eNOS promoter firefly luciferase reporter gene assay)
Type: cell-based
Conditions: human endothelial cell line stably transfected with eNOS promoter-luciferase construct, 18 h incubation; read-out: EC50 values of transcription induction ratios (TIR)
Experimental: Activation of eNOS transcription was measured as described in detail by Li et al., “Activation of protein kinase C alpha and/or epsilon enhances transcription of the human endothelial nitric oxide synthase gene”, Mol. Pharmacol. 53 (1998) 630. Briefly, a 3.5 kB long fragment 5′ of the starting codon of the eNOS gene was cloned, sequenced and cloned in firefly luciferase expression plasmids to monitor activation of the eNOS promoter by reporter gene activity. A human endothelial cell line stable transfected and expressing this promoter-reporter construct was used for compound testing. Cells were incubated for 18 h with the compounds.
All compounds were dissolved in sterile dimethyl sulfoxide (DMSO). A final concentration of 0.5% DMSO in complete medium was allowed. Induction of reporter gene expression in these cells was measured using a standard luciferase assay system (Promega, Cat. No. E150) according to the manufacturer's instructions. Luciferase induction in cells incubated with compounds were compared to those incubated with solvent alone. The ratio of both activities (transcription induction ratio, TIR) was plotted as a function of compound concentration. Typically, TIR values started at low concentrations at a ratio of 1, indicating no compound effect, and extended up to a maximum TIR value TIR(max) which indicates the increase of the eNOS transcription. EC50 values of transcription induction ratios as a function of compound concentration were determined graphically.

SMILES	EC50
COC(=O)c1ccc2nc(-c3ccccc3)cn2c1 [Example 13, 2-Phenyl-imidazo[1,2-a]pyridine-6-carboxylic acid methyl ester]	< 500 nM
COC(=O)c1ccc2nc(-c3ccccc3F)cn2c1 [Example 5, 2-(2-Fluoro-phenyl)-imidazo[1,2-a]pyridine-6-carboxylic acid methyl ester]	< 500 nM
O=CNc1ccc2nc(-c3ccc(F)cc3)cn2c1 [Example 67, N-[2-(4-Fluoro-phenyl)-imidazo[1,2-a]pyridin-6-yl]-formamide]	< 500 nM
CCN(CC)c1ccc(-c2cn3cc(C(=O)OC)ccc3n2)cc1 [Example 17, 2-(4-Diethylamino-phenyl)-imidazo[1,2-a]pyridine-6-carboxylic acid methyl ester]	< 500 nM
COC(=O)c1ccc2nc(-c3ccc(OC(F)(F)F)cc3)cn2c1 [Example 16, 2-(4-Trifluoromethoxy-phenyl)-imidazo[1,2-a]pyridine-6-carboxylic acid methyl ester]	< 500 nM
CCN(CC)c1ccc(-c2cn3cc(C#N)ccc3n2)cc1 [Example 53, 2-(4-Diethylamino-phenyl)-imidazo[1,2-a]pyridine-6-carbonitrile trifluoroacetic acid salt]	< 500 nM
COC(=O)c1ccc2nc(-c3ccc(F)cc3)cn2c1 [Example 1, 2-(4-Fluoro-phenyl)-imidazo[1,2-a]pyridine-6-carboxylic acid methyl ester]	< 500 nM
COC(=O)c1ccc2nc(-c3cccc(Br)c3)cn2c1 [Example 24, 2-(3-Bromo-phenyl)-imidazo[1,2-a]pyridine-6-carboxylic acid methyl ester]	< 500 nM
Cc1ccc(-c2cn3cc(C#N)ccc3n2)cc1 [Example 54, 2-p-Tolyl-imidazo[1,2-a]pyridine-6-carbonitrile]	< 500 nM
Cc1ccc(-c2cn3cc(C(=O)O)ccc3n2)cc1 [Example 46, 2-p-Tolyl-imidazo[1,2-a]pyridine-6-carboxylic acid]	< 500 nM
COC(=O)c1ccc2nc(-c3cccc([N+](=O)[O-])c3)cn2c1 [Example 8, 2-(3-Nitro-phenyl)-imidazo[1,2-a]pyridine-6-carboxylic acid methyl ester]	< 500 nM
Nc1ccc2nc(-c3ccc(F)cc3)cn2c1 [Example 66, 2-(4-Fluoro-phenyl)-imidazo[1,2-a]pyridin-6-ylamine]	< 500 nM
COC(=O)c1ccc2nc(-c3ccc4c(c3)OCCO4)cn2c1 [Example 34, 2-(2,3-Dihydro-benzo[1,4]dioxin-6-yl)-imidazo[1,2-a]pyridine-6-carboxylic acid methyl ester]	< 500 nM
COC(=O)c1ccc2nc(-c3ccccc3Cl)cn2c1 [Example 20, 2-(2-Chloro-phenyl)-imidazo[1,2-a]pyridine-6-carboxylic acid methyl ester]	< 500 nM
COC(=O)c1ccc2nc(-c3ccc(F)c(F)c3)cn2c1 [Example 19, 2-(3,4-Difluoro-phenyl)-imidazo[1,2-a]pyridine-6-carboxylic acid methyl ester]	< 500 nM
COC(=O)c1ccc2nc(-c3ccc(N)cc3)cn2c1 [Example 44, 2-(4-Amino-phenyl)-imidazo[1,2-a]pyridine-6-carboxylic acid methyl ester]	< 500 nM
COC(=O)c1ccc2nc(-c3ccc(OC)cc3)cn2c1 [Example 10, 2-(4-Methoxy-phenyl)-imidazo[1,2-a]pyridine-6-carboxylic acid methyl ester]	< 500 nM
COC(=O)c1ccc2nc3c(n2c1)Cc1ccccc1-3 [Example 42, 11H-Indeno[1′,2′:4,5]imidazo[1,2-a]pyridine-8-carboxylic acid methyl ester]	< 500 nM
COC(=O)c1ccc2nc(-c3ccc(Cl)cc3Cl)cn2c1 [Example 28, 2-(2,4-Dichloro-phenyl)-imidazo[1,2-a]pyridine-6-carboxylic acid methyl ester]	< 500 nM

SMILES	EC50
COC(=O)c1ccc2nc(-c3cccc(Cl)c3)cn2c1 [Example 31, 2-(3-Chloro-phenyl)-imidazo[1,2-a]pyridine-6-carboxylic acid methyl ester]	< 500 nM
COC(=O)c1ccc2nc(-c3ccc(C)cc3C)cn2c1 [Example 25, 2-(2,4-Dimethyl-phenyl)-imidazo[1,2-a]pyridine-6-carboxylic acid methyl ester]	< 500 nM
COC(=O)c1ccc2nc(-c3cccc(C#N)c3)cn2c1 [Example 23, 2-(3-Cyano-phenyl)-imidazo[1,2-a]pyridine-6-carboxylic acid methyl ester]	< 500 nM
Fc1ccc(-c2cn3cc(Br)ccc3n2)cc1 [Example 61, 6-Bromo-2-(4-fluoro-phenyl)-imidazo[1,2-a]pyridine]	< 500 nM
COC(=O)c1ccc2nc(-c3ccc(Br)cc3)cn2c1 [Example 12, 2-(4-Bromo-phenyl)-imidazo[1,2-a]pyridine-6-carboxylic acid methyl ester]	< 500 nM
Cc1ccc(-c2cn3cc(/C(N)=N/O)ccc3n2)cc1 [Example 57, N-Hydroxy-2-p-tolyl-imidazo[1,2-a]pyridine-6-carboxamidine]	< 500 nM
CCOC(=O)ONC(=N)c1ccc2nc(-c3ccc(F)cc3)cn2c1 [Example 60, 2-(4-Fluoro-phenyl)-N-ethoxycarbonyloxy-imidazo[1,2-a]pyridine-6-carboxamidine]	< 500 nM
COC(=O)c1ccc2nc(-c3cc(F)cc(F)c3)cn2c1 [Example 32, 2-(3,5-Difluoro-phenyl)-imidazo[1,2-a]pyridine-6-carboxylic acid methyl ester]	< 500 nM
COC(=O)c1ccc2nc(-c3ccc(Br)c(S(N)(=O)=O)c3)cn2c1 [Example 21, 2-(4-Bromo-3-sulfamoyl-phenyl)-imidazo[1,2-a]pyridine-6-carboxylic acid methyl ester]	< 500 nM
N#Cc1ccc2nc(-c3ccc(F)cc3)cn2c1 [Example 52, 2-(4-Fluoro-phenyl)-imidazo[1,2-a]pyridine-6-carbonitrile]	< 500 nM
COC(=O)c1ccc2nc(-c3cccc(F)c3)cn2c1 [Example 14, 2-(3-Fluoro-phenyl)-imidazo[1,2-a]pyridine-6-carboxylic acid methyl ester]	< 500 nM
COC(=O)c1ccc2nc(-c3cccc(C(F)(F)F)c3)cn2c1 [Example 33, 2-(3-Trifluoromethyl-phenyl)-imidazo[1,2-a]pyridine-6-carboxylic acid methyl ester]	< 500 nM
COC(=O)c1ccc2nc(-c3ccc([N+](=O)[O-])cc3)cn2c1 [Example 38, 2-(4-Nitro-phenyl)-imidazo[1,2-a]pyridine-6-carboxylic acid methyl ester]	< 500 nM
COC(=O)c1ccc2nc(-c3ccc(Br)cc3)c(C)n2c1 [Example 2, 2-(4-Bromo-phenyl)-3-methyl-imidazo[1,2-a]pyridine-6-carboxylic acid methyl ester]	< 500 nM
COC(=O)c1ccc2nc(-c3ccc(-c4ccccc4)cc3)cn2c1 [Example 37, 2-Biphenyl-4-yl-imidazo[1,2-a]pyridine-6-carboxylic acid methyl ester]	< 500 nM
COC(=O)c1ccc2nc(-c3ccc(C(F)(F)F)cc3)cn2c1 [Example 15, 2-(4-Trifluoromethyl-phenyl)-imidazo[1,2-a]pyridine-6-carboxylic acid methyl ester]	< 500 nM
COC(=O)c1ccc2nc(-c3ccccc3)c(C)n2c1 [Example 3, 3-Methyl-2-phenyl-imidazo[1,2-a]pyridine-6-carboxylic acid methyl ester]	< 500 nM
N=C(NO)c1ccc2nc(-c3ccc(F)cc3)cn2c1 [Example 56, 2-(4-Fluoro-phenyl)-N-hydroxy-imidazo[1,2-a]pyridine-6-carboxamidine]	< 500 nM
COC(=O)c1ccc2nc(-c3ccc(C)cc3)cn2c1 [Example 7, 2-p-Tolyl-imidazo[1,2-a]pyridine-6-carboxylic acid methyl ester]	< 500 nM
